# Source: patent US20230083015A1, “SMALL MOLECULE DEGRADERS OF STAT3” (THE REGENTS OF THE UNIVERSITY OF MICHIGAN, priority 2019, published 2023)
# Columns and labels:
# STAT1 = target: T1, STAT1 (Homo sapiens, UniProt P42224); experiment: Estimated DC50 for STAT1 degradation in MOLM-16 cells (immunoblotting); type: cell-based; conditions: MOLM-16, 4 h; read-out: Estimated DC50 STAT1
# T1 construct: In vitro cultured cells or xenograft tumors were lysed; endogenous in cells; host or cells: MOLM-16
# T1 sequence (P42224 1-750): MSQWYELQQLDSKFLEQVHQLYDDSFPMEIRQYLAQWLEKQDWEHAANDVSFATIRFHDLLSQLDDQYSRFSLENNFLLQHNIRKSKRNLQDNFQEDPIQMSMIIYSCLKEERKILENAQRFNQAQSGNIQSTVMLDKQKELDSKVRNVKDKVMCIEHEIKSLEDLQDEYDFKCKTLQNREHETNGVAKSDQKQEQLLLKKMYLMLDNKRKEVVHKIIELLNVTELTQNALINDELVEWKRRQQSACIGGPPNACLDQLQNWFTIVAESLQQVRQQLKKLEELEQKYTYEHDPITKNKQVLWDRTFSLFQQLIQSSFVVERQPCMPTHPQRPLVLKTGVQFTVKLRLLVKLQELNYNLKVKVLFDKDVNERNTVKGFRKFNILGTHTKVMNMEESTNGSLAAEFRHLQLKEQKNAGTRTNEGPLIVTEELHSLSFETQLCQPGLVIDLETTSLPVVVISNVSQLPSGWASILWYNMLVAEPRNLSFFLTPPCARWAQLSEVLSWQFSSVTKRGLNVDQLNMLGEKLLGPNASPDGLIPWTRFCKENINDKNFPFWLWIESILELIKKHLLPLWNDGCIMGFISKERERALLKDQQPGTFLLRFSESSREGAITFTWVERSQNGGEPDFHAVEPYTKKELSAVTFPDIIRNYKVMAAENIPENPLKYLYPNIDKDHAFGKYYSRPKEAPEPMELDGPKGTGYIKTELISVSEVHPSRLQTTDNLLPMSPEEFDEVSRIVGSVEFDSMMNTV
# Experimental: (§1) FIG. 62 is a series of four images showing the fluorescent immunoblotting analysis of STAT1 and STAT3 protein in Molm-16 cells after treatment for 4 h with Cpd. Nos. 331, 296, 361, 362, 363, 364, 365, 366, and 367 at the concentrations indicated.
# (§2) In vitro cultured cells or xenograft tumors were lysed 1× Cell Lysis Buffer (Cell Signaling Technology, #9803), resolved by SDS-PAGE NuPAGE gel (Thermo Fisher Scientific), and transferred to a PVDF membrane (Bio Rad). For chemiluminescence immunoblotting, membranes were blocked for 1 h using 5% Blotting-Grade Blocker (#1706404, Bio Rad) in 1× Tris-buffered saline with Tween 20 (TBST, Pierce). Antibodies used were: rabbit mAbs for STAT3 (Cell Signaling Technology, #4368, #12640) and p-STAT3 (Y705) (Cell Signaling Technology, #9245, #52075). HRP conjugated goat anti-rabbit IgG (H+L) (#A27036) secondary antibodies was from Thermo Fisher Scientific. GAPDH (Santa Cruz Technology, sc-47724HRP) and actin (Santa Cruz Technology, sc-8432HRP, sc-47778HRP) were loading controls. For fluorescent immunoblotting, membranes were blocked using Odyssey TBS Blocker Buffer (LI-COR). IRDye 680RD and 800CW Dye-labeled secondary antibodies (LI-COR) were used. The washed membranes were scanned using Odyssey CLx imager (LI-COR). The intensity of Western blot signaling was quantitated using the Odyssey software.
# (§3) The estimated DC50 in MOLM-16 cells of representative Compounds of the Disclosure against STAT3 and STAT1 is provide in Table 5.
# STAT3 = STAT3 (Homo sapiens, UniProt P40763); experiment: Estimated DC50 for STAT3 degradation in MOLM-16 cells (immunoblotting); type: cell-based; set-up: In vitro cultured cells or xenograft tumors were lysed; endogenous in cells; host or cells: MOLM-16; conditions: MOLM-16, 4 h; read-out: Estimated DC50 STAT3
# STAT3, sequence (P40763 whole entry): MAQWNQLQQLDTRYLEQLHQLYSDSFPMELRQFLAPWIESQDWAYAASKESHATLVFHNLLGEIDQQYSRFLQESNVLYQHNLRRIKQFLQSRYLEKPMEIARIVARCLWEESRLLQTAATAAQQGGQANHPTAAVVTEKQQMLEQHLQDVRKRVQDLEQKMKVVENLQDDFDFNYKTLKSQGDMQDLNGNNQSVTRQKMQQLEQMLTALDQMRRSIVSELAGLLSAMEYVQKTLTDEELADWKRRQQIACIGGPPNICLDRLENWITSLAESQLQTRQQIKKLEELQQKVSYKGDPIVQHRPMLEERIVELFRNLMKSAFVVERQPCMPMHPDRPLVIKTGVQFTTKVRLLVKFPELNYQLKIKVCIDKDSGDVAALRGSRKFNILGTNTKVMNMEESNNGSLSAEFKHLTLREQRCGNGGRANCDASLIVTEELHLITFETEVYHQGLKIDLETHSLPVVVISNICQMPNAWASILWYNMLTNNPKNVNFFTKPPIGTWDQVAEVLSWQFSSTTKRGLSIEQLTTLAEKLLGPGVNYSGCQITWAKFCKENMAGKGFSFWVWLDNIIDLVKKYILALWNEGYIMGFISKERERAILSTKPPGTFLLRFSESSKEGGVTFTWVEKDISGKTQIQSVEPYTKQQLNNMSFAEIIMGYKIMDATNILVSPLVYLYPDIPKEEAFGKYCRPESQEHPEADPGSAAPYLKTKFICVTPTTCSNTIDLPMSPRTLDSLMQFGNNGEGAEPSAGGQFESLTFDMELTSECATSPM
# Experimental: as §1, §2, §3
smiles,measurement,setting,value
"CCN1CC[C@H]2CC[C@@H](C(=O)N[C@@H](CCC(N)=O)C(=O)N[C@@H](Cc3ccc(C(=O)N4CCC(F)(F)CC4)cc3)C(=O)N3CCC(CCC#Cc4cccc5c4CN(C4CCC(=O)NC4=O)C5=O)CC3)N2C(=O)[C@@H](NC(=O)c2cc3cc(C(F)(F)P(=O)(O)O)ccc3s2)C1 (stereo partly drawn) [Cpd. No. 365, ((2-(((5S,8S,10aR)-8-(((2S)-5-amino-1-(((2S)-3-(4-(4,4-difluoropiperidine-1-carbonyl)phenyl)-1-(4-(4-(2-(2,6-dioxopiperidin-3-yl)-1-oxoisoindolin-4-yl)but-3-yn-1-yl)piperidin-1-yl)-1-oxopropan-2-yl)amino)-1,5-dioxopentan-2-yl)carbamoyl)-3-ethyl-6-oxodecahydropyrrolo[1,2-a][1,5]diazocin-5-yl)carbamoyl)benzo[b]thiophen-5-yl)difluoromethyl) phosphonic acid]",DC50,STAT1,< 250 nM
same,DC50,STAT3,< 250 nM
"CC(C)N1CC[C@H]2CC[C@@H](C(=O)N[C@@H](CCC(N)=O)C(=O)N[C@@H](Cc3ccc(C(C)(C)C)cc3)C(=O)N3CCC(CCC#Cc4cccc5c4CN(C4CCC(=O)NC4=O)C5=O)CC3)N2C(=O)[C@@H](NC(=O)c2cc3cc(C(F)(F)P(=O)(O)O)ccc3s2)C1 (stereo partly drawn) [Cpd. No. 364, ((2-(((5S,8S,10aR)-8-(((2S)-5-amino-1-(((2S)-3-(4-(tert-butyl)phenyl)-1-(4-(4-(2-(2,6-dioxopiperidin-3-yl)-1-oxoisoindolin-4-yl)but-3-yn-1-yl)piperidin-1-yl)-1-oxopropan-2-yl)amino)-1,5-dioxopentan-2-yl)carbamoyl)-3-isopropyl-6-oxodecahydropyrrolo[1,2-a][1,5]diazocin-5-yl)carbamoyl)benzo[b]thiophen-5-yl)difluoromethyl) phosphonic acid]",DC50,STAT1,< 250 nM
same,DC50,STAT3,< 250 nM
"CCN1CC[C@H]2CC[C@@H](C(=O)N[C@@H](CCC(N)=O)C(=O)N[C@@H](Cc3ccc(C(=O)NC4CCOCC4)cc3)C(=O)N3CCC(CCC#Cc4cccc5c4CN(C4CCC(=O)NC4=O)C5=O)CC3)N2C(=O)[C@@H](NC(=O)c2cc3cc(C(F)(F)P(=O)(O)O)ccc3s2)C1 (stereo partly drawn) [Cpd. No. 359, ((2-(((5S,8S,10aR)-8-(((2S)-5-amino-1-(((2S)-1-(4-(4-(2-(2,6-dioxopiperidin-3-yl)-1-oxoisoindolin-4-yl)but-3-yn-1-yl)piperidin-1-yl)-1-oxo-3-(4-((tetrahydro-2H-pyran-4-yl)carbamoyl)phenyl)propan-2-yl)amino)-1,5-dioxopentan-2-yl)carbamoyl)-3-ethyl-6-oxodecahydropyrrolo[1,2-a][1,5]diazocin-5-yl)carbamoyl)benzo[b]thiophen-5-yl)difluoromethyl)phosphonic Acid]",DC50,STAT1,> 1000 nM
same,DC50,STAT3,1000 nM
"CCN1CC[C@H]2CC[C@@H](C(=O)N[C@@H](CCC(N)=O)C(=O)N[C@@H](Cc3ccc(C(=O)NC4CCCCC4)cc3)C(=O)N3CCC(CCC#Cc4cccc5c4CN(C4CCC(=O)NC4=O)C5=O)CC3)N2C(=O)[C@@H](NC(=O)c2cc3cc(C(F)(F)P(=O)(O)O)ccc3s2)C1 (stereo partly drawn) [Cpd. No. 367, ((2-(((5S,8S,10aR)-8-(((2S)-5-amino-1-(((2S)-3-(4-(cyclohexylcarbamoyl)phenyl)-1-(4-(4-(2-(2,6-dioxopiperidin-3-yl)-1-oxoisoindolin-4-yl)but-3-yn-1-yl)piperidin-1-yl)-1-oxopropan-2-yl)amino)-1,5-dioxopentan-2-yl)carbamoyl)-3-ethyl-6-oxodecahydropyrrolo[1,2-a][1,5]diazocin-5-yl)carbamoyl)benzo[b]thiophen-5-yl)difluoromethyl) phosphonic acid]",DC50,STAT1,< 1000 nM
same,DC50,STAT3,< 1000 nM
"CCN1CC[C@H]2CC[C@@H](C(=O)N[C@@H](CCC(N)=O)C(=O)N[C@@H](Cc3ccc(C(=O)NCC4CCN(C)CC4)cc3)C(=O)N3CCC(CCC#Cc4cccc5c4CN(C4CCC(=O)NC4=O)C5=O)CC3)N2C(=O)[C@@H](NC(=O)c2cc3cc(C(F)(F)P(=O)(O)O)ccc3s2)C1 (stereo partly drawn) [Cpd. No. 360, ((2-(((5S,8S,10aR)-8-(((2S)-5-amino-1-(((2S)-1-(4-(4-(2-(2,6-dioxopiperidin-3-yl)-1-oxoisoindolin-4-yl)but-3-yn-1-yl)piperidin-1-yl)-3-(4-(((1-methylpiperidin-4-yl)methyl)carbamoyl)phenyl)-1-oxopropan-2-yl)amino)-1,5-dioxopentan-2-yl)carbamoyl)-3-ethyl-6-oxodecahydropyrrolo [1,2-a][1,5]diazocin-5-yl)carbamoyl)benzo [b]thiophen-5-yl)difluoromethyl) phosphonic acid]",DC50,STAT1,> 1000 nM
same,DC50,STAT3,> 1000 nM
"CCN1CC[C@H]2CC[C@@H](C(=O)N[C@@H](CNC(N)=O)C(=O)N[C@@H](Cc3ccc(C(C)(C)C)cc3)C(=O)N3CCC(CCC#Cc4cccc5c4CN(C4CCC(=O)NC4=O)C5=O)CC3)N2C(=O)[C@@H](NC(=O)c2cc3cc(C(F)(F)P(=O)(O)O)ccc3s2)C1 (stereo partly drawn) [compound 356, ((2-(((5S,8S,10aR)-8-(((2S)-1-(((2S)-3-(4-(tert-butyl)phenyl)-1-(4-(4-(2-(2,6-dioxopiperidin-3-yl)-1-oxoisoindolin-4-yl)but-3-yn-1-yl)piperidin-1-yl)-1-oxopropan-2-yl)amino)-1-oxo-3-ureidopropan-2-yl)carbamoyl)-3-ethyl-6-oxodecahydropyrrolo[1,2-a][1,5]diazocin-5-yl)carbamoyl)benzo[b]thiophen-5-yl)difluoromethyl)phosphonic acid]",DC50,STAT1,> 1000 nM
same,DC50,STAT3,< 250 nM
"CCN1CC[C@H]2CC[C@@H](C(=O)N[C@@H](CCC(N)=O)C(=O)N[C@@H](Cc3ccc(S(=O)(=O)C4CC4)cc3)C(=O)N3CCC(CCC#Cc4cccc5c4CN(C4CCC(=O)NC4=O)C5=O)CC3)N2C(=O)[C@@H](NC(=O)c2cc3cc(C(F)(F)P(=O)(O)O)ccc3s2)C1 (stereo partly drawn) [Cpd. No. 353, ((2-(((5S,8S,10aR)-8-(((2S)-5-amino-1-(((2S)-3-(4-(cyclopropylsulfonyl)phenyl)-1-(4-(4-(2-(2,6-dioxopiperidin-3-yl)-1-oxoisoindolin-4-yl)but-3-yn-1-yl)piperidin-1-yl)-1-oxopropan-2-yl)amino)-1,5-dioxopentan-2-yl)carbamoyl)-3-ethyl-6-oxodecahydropyrrolo[1,2-a][1,5]diazocin-5-yl)carbamoyl)benzo[b]thiophen-5-yl)difluoromethyl)phosphonic Acid]",DC50,STAT1,500 nM
same,DC50,STAT3,< 250 nM
"NC(=O)CC[C@H](NC(=O)[C@@H]1CC[C@@H]2CCN(C(=O)CCCCCC#Cc3cccc4c3CN(C3CCC(=O)NC3=O)C4=O)C[C@H](NC(=O)c3cc4cc(C(F)(F)P(=O)(O)O)ccc4s3)C(=O)N21)C(=O)NC(Cc1ccccc1)Cc1ccccc1 (stereo partly drawn) [Cpd. No. 349, ((2-(((5S,8S,10aR)-8-(((S)-5-amino-1-((1,3-diphenylpropan-2-yl)amino)-1,5-dioxopentan-2-yl)carbamoyl)-3-(8-(2-(2,6-dioxopiperidin-3-yl)-1-oxoisoindolin-4-yl)oct-7-ynoyl)-6-oxodecahydropyrrolo[1,2-a][1,5]diazocin-5-yl)carbamoyl)benzo[b]thiophen-5-yl)difluoromethyl) phosphonic acid]",DC50,STAT3,200 nM
